This note sets out measurements from PubChem BioAssay (NCI).

Several values for one entry are separate records, joined by “and”; a condition that tells them apart may be missing. Equal values may be shown once.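 Cells were grown in 96-well plates and exposed to each compound for 48 hours at five concentrations; endpoints were interpolated linearly between bracketing concentrations, or set to the highest concentration if not reached. GI50 marks 50% less growth. Definition used: TGI = concentration required for complete inhibition of growth.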

Common to all, as to assay: inhibition of tumour cell growth, NCI panel, 48 h
The test system of assay [1] is SR leukemia.
Assay [2] has as its system OVCAR-5 ovarian.
Assay [3] concerns LOX IMVI melanoma.
The subject of assay [4] is SK-OV-3 ovarian.
Assay [5] relates to HT29 colon.
Assay [6] has as its system ACHN renal.
The subject of assay [7] is M14 melanoma.
Assay [8] relates to MOLT-4 leukemia.
Assay [9] relates to HOP-92 NSCLC.
For assay [10], the system named is U251 CNS.

As for `COc1cc2cc(Oc3ccc(NC(=O)Nc4ccc(Cl)c(C(F)(F)F)c4)cc3)c(C)nc2cc1OC`, the GI50 in assay [1] was 0.831 µM; in assay [2], 1.93 µM; in [3], 1.22 µM; in assay [4], 1.35 µM; in assay [5], 1.2 µM; in assay [6], 1.07 µM. Besides, the GI50 in [7] was 1.25 µM; in assay [8] it was 1.14 µM; in assay [9], 0.682 µM; in assay [10], 1.03 µM. The TGI in [1] is 2.65 µM; in [2], 6.22 µM; in [3], 4.16 µM; in assay [4], 5.79 µM; in [5], 3.98 µM; in assay [6], 4 µM. Also, the TGI in assay [7] amounted to 5.25 µM; in assay [8], 5.49 µM; in [9], 2.05 µM; in assay [10], 3.78 µM.
Take `NC(Cc1ccnnc1)C(=O)O` (centres undefined): the TGI in assay [1], in assay [2], in assay [3], in [4], in assay [5] and in assay [6] was above 100 µM in each case. In addition, the TGI in assay [7], in [8], in [9] and in assay [10] was above 100 µM each time.
In the case of `CCCCCC(O)(CCCCC)CCCCCCCCC1=C(O)c2[nH]c(=O)ccc2C(=O)C1=O`, the TGI worked out at 96.7 µM in assay [1]; 35 µM in assay [2]; 24 µM in assay [3]; 29.6 µM in assay [4]; 30.5 µM in assay [5]; 19.2 µM in assay [6]. The TGI in assay [7] came to 21.6 µM; in assay [8], 55.5 µM; in assay [9], 28.1 µM; in [10], 16.7 µM.
`CS(=O)(=O)CCn1c(=O)c(Oc2ccc(F)cc2F)cc2cnc(NC3CCOCC3)nc21`: the GI50 in assay [1], in assay [2], in assay [3], in [4], in assay [5] and in [6] was above 25 µM throughout. For the same compound, the GI50 in assay [7] was above 25 µM; in [8] it was above 25 µM; in assay [9], 2.64 µM; in assay [10], above 25 µM. The TGI in assay [1], in [2], in assay [3], in assay [4], in [5] and in assay [6] was above 25 µM in each case. In addition, the TGI in assay [7], in assay [8], in assay [9] and in [10] was above 25 µM throughout.
Consider `Cc1cc(C)cc(Nc2ccc([N+](=O)[O-])c(NCCN3CCOCC3)n2)c1`, for which the TGI in [1], in assay [2], in [3], in assay [4], in [5] and in [6] was above 100 µM in each case. Further, the TGI in assay [8] was above 100 µM; in assay [9], 24.3 µM; in assay [10], above 100 µM. For the same compound, the GI50 in assay [2] was 0.0576 µM and 0.0361 µM; in [3], 0.0159 µM and 0.0114 µM; in assay [5] it was 0.00219 µM and 0.0188 µM; in assay [6] it was 0.0143 µM and 0.012 µM; in [7], 0.00162 µM.
Regarding `CCCCCCCCCCCC(O)=C1C(=O)CC(O)CC1=O` (centres undefined), the TGI in assay [1], in [2], in assay [3], in assay [4], in [5] and in assay [6] was above 100 µM in each case. The TGI in assay [7], in assay [8], in assay [9] and in assay [10] was above 100 µM in each case.
As to `C[C@@H](Oc1ccc2[nH]nc(/C=C/c3cnn(CCO)c3)c2c1)c1c(Cl)cncc1Cl`, the GI50 in assay [1] was 0.0208 µM; in [2], 0.166 µM; in assay [3], 0.0593 µM; in [4] it was 1.29 µM; in assay [5] it was 0.171 µM; in assay [6], 0.284 µM. Further, the GI50 in [7] was 0.739 µM; in assay [8] it was 0.488 µM; in assay [9] it was 0.0168 µM; in assay [10] it was 0.142 µM. The TGI in [1] was 1.1 µM; in assay [2], 2.29 µM; in [3] it was 0.281 µM; in assay [4], 6.15 µM; in [5], 0.681 µM; in assay [6] it was above 100 µM. Besides, the TGI in [7] turned out to be 3.11 µM; in [8], 3.34 µM; in [9] it was 0.0987 µM; in assay [10], 2.41 µM.
As to `CC(C)(C)[Si](C)(C)OCC1C=CC(n2cnc3c(N)ncnc32)O1` (centres undefined), the TGI in assay [1] is 60.8 µM; in [2] it was above 100 µM; in [3], above 64 µM; in [4], above 100 µM; in assay [5], above 100 µM; in [6], above 100 µM. Further, the TGI in assay [7] stood at 66.9 µM; in assay [8], 44.4 µM; in assay [9] it was 38.1 µM; in assay [10] it was 72.3 µM.
